Our source for the target mRNA inhibition values is the OligoGym collection.

The data set deals with MALAT1. Conditions: ASO, A431, 0.005 µM.

Several values for one entry are separate records, joined by “and”; a condition that tells them apart may be missing. Equal entries are not always repeated. After the bases stand the sugars from the 5' end (letter, count) and the backbone: PS all phosphorothioate, else s phosphorothioate and o phosphodiester by linkage. Methylation of C is not given here. k = constrained ethyl (cEt); d = 2'-deoxy (DNA)

Consider ATCACCTTCGGTTTAA (sugars k3 d10 k3, PS), for which the target mRNA inhibition worked out at 40%.
Consider CCAAGATTGCCCCAAC (sugars k3 d10 k3, PS), for which the target mRNA inhibition worked out at 14%.
Take AGCTACCATCAGAAGA (sugars k3 d10 k3, PS): the target mRNA inhibition is 34%.
Next, GACTTGGCAGTCTGCC (sugars k3 d10 k3, PS): 10%.
Take TTGGGAGTTACTTGCC (sugars k3 d10 k3, PS): the target mRNA inhibition is 70% and 73%.
Then GTAGATTCCGTAACTT (sugars k3 d10 k3, PS), with 73% and 54% and 50%; and TGTATTAATCTCTATC (sugars k3 d10 k3, PS), with 41%; and ACCAAAGACCTCGACA (sugars k3 d10 k3, PS), with 14%.
On to ATCCCTTTACACCTCA (sugars k3 d10 k3, PS), for which the target mRNA inhibition was 36%.
Next, CCCTTCTATTGGTATT (sugars k3 d10 k3, PS): 7%; ATGCTAGTCCTCAGGA (sugars k3 d10 k3, PS): -20%.
Next, CTTGAAGACTGTTGCT (sugars k3 d10 k3, PS): 42%; AGTTACATGTTCCCAC (sugars k3 d10 k3, PS): 33%.
As for TCAAGCACCGCTTGAG (sugars k3 d10 k3, PS), the target mRNA inhibition was -12% and 8%.
With GGAAGATTAAAGTGTG (sugars k3 d10 k3, PS), the target mRNA inhibition is 21%.
Then CAACTAAGCGAATGGC (sugars k3 d10 k3, PS), with 24%.
Next, TGCAGTCCTGCGACTT (sugars k3 d10 k3, PS): 15%.
For the sequence GGCTGACACTTCTCTT (sugars k3 d10 k3, PS), the target mRNA inhibition is 52% and 64%.
Then CCCTTCAAGCACCGCT (sugars k3 d10 k3, PS), with 28%.
In the case of CAATGCACTAAAGATC (sugars k3 d10 k3, PS), the target mRNA inhibition came out at 10%.
Consider ACCAGTCCTTTTAGTA (sugars k3 d10 k3, PS), for which the target mRNA inhibition was -2%.
Next, CGCTAAGATGCTAGCT (sugars k3 d10 k3, PS): -6%; ATTAATGCTAGTCCTC (sugars k3 d10 k3, PS): 36%.
Then CACCAAAGACCTCGAC (sugars k3 d10 k3, PS), with 18%; and CATTCAAGCTGAACTA (sugars k3 d10 k3, PS), with 39%.
Regarding TAACTACCAGCCATTT (sugars k3 d10 k3, PS), the target mRNA inhibition stood at 24%.
Next, TTATAGACCCCTGACT (sugars k3 d10 k3, PS): 10%; AGGAACAAGTCCTACA (sugars k3 d10 k3, PS): 36%; AACCACTCGCTTTCCC (sugars k3 d10 k3, PS): 41%.
Then TAAAAGATCGCCTTCA (sugars k3 d10 k3, PS), with 41%; and CAGGGCTTTACTTTCC (sugars k3 d10 k3, PS), with 2%.
Then CGGACTTTCTCCCCCA (sugars k3 d10 k3, PS), with -9%; and ATTTGAACCCCGTCCT (sugars k3 d10 k3, PS), with 31%; and CACCACCTGGAATGGC (sugars k3 d10 k3, PS), with 8%.
Consider ATATAAGGTCAATAGT (sugars k3 d10 k3, PS), for which the target mRNA inhibition stood at 16%.
Next, GCTGAAATTGTCTCAA (sugars k3 d10 k3, PS): 45%; CTTGATCCCAACTCAT (sugars k3 d10 k3, PS): 11%; GCCTTTTCTAACATAG (sugars k3 d10 k3, PS): -1%.
Regarding GTAACCTATTGACTAT (sugars k3 d10 k3, PS), the target mRNA inhibition worked out at 33%.
